This assay addresses CXCR2 (Homo sapiens (Human), UniProt P25025). In words: Inhibition of GROα-mediated intracellular calcium release in human neutrophils (FLIPR-3 Ca2+ mobilization). It counts as cell-based. To be noted: read-out: IC50. Here is the method:
In Tables 1-5, the IC50 or EC50 values were determined using the following assay. This assay measures intracellular calcium release via fluorescence as an indication of CXCR2 receptor activation by the physiologic agonist GROα. The assay is a Ca^2+ mobilization assay that measures changes in intracellular Ca^2+ with a FlexStation II scanning fluorometer using a FLIPR-3 Calcium Assay Kit (Molecular Devices, Sunnyvale, Calif.). The procedure is as follows:
1. Human neutrophils were suspended in HBSS^− (without Ca^2+ and Mg^2+) containing 10 mM HEPES and FLIPR Calcium 3 dye (3.1×10^7 cells in total volume 1.7 mL).
2. […] As controls, 2 μL of DMSO (1% final concentration) were added to other 2 tubes.
3. Cells were incubated for 30 min at 37° C.
4. After dye loading, tubes were centrifuged at 6,000 rpm for 1 min, supernatant was removed and cell pellet was re-suspended in 200 μL of HBSS^+ (with Ca^2+ and Mg^2+) containing 10 mM HEPES.
5. The compound or DMSO (control) was added again at the same concentrations that were used during cell loading.
6. The cell suspension was aliquoted into a 96-well Reading Plate (Corning) in a volume of 90 μL (10^5 cells/well). The Compound Plate contained physiologic agonist (GROα in HBSS^−) or HBSS^− (control).
9. The maximum change in fluorescence, expressed in arbitrary units over baseline (Max-Min) was used to determine the GROα response. […] Therapeutic Activity
Briefly, human neutrophils were suspended in HBSS^− (without Ca^2+ and Mg^2+) containing 10 mM HEPES and FLIPR Calcium 3 dye (3.1×10^7 cells in total volume 1.7 mL). […] As controls, 2 μL of DMSO (1% final concentration) were added to 2 other tubes. Cells were incubated for 30 min at 37° C. After dye loading, tubes were centrifuged at 6,000 rpm for 1 min, supernatant was removed and the cell pellet was re-suspended in 200 μL of HBSS^+ (with Ca^2+ and Mg^2+) containing 10 mM HEPES. The test compound or DMSO (control) was added again at the same concentrations that were used during cell loading. The cell suspension was aliquoted into a 96-well Reading Plate (Corning) in a volume of 90 μL (10^5 cells/well). The Compound Plate contained agonist (GROα in HBSS^−) or HBSS^− (control).
The maximum change in fluorescence, expressed in arbitrary units over baseline (Max-Min), was used to determine the GROα response.
For orientation: Calcium assays in cells follow changes in intracellular calcium, usually with a dye or a luminescent sensor.

Where two headings read alike, the source gives them in different places.

One may read the IC50 as the point on the concentration scale where inhibition reaches its midpoint.

Chain of CXCR2 (P25025 whole entry): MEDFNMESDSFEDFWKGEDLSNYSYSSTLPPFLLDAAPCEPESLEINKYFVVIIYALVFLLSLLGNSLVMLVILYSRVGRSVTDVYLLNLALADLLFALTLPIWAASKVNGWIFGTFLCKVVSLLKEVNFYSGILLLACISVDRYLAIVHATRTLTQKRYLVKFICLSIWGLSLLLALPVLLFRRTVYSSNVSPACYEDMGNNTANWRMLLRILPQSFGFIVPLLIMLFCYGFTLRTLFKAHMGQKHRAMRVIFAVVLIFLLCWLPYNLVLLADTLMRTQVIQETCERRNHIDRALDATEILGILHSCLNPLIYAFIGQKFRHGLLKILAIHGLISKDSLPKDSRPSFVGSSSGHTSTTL

Turning to `O=C(Nc1ccc(F)cc1)c1ccc(SCC(=O)c2csc3ccc(Br)cc23)nc1` [Compound 127], the IC50 (human neutrophils, 25 nM GROα) was 1.25 ± 0.32 µM. On the same count and under the same terms, next, `Cc1onc(-c2ccccc2)c1CSc1ccc(C(=O)Nc2ccc(F)cc2)cn1` [Compound 45]: > 5 µM. The same measure, in the same setting: next, `O=C(CSc1ccc(C(=O)Nc2ccc(F)cc2)cn1)c1cccc(F)c1` [Compound 91]: > 10 µM; `O=C(Nc1ccc(F)cc1)c1ccc(SCCCCN2C(=O)c3ccc([N+](=O)[O-])cc3C2=O)nc1` [Compound 59]: > 10 µM; `COc1cc(CSc2ccc(C(=O)Nc3ccc(F)cc3)cn2)c(B(O)O)cc1OC` [Compound 5, 6-(2-boronic acid-4,5-di-methoxy-benzylsulfanyl)-N-(4-fluoro-phenyl)-nicotinamide]: > 10 µM. The same measure, in the same setting: the value for `O=C(Nc1ccc(F)cc1)c1ccc(SCc2cccc3cccnc23)nc1` [Compound 53] was > 5 µM. For `O=C(CSc1ccc(C(=O)Nc2ccc(F)cc2)cn1)c1ccc(F)c(F)c1` [Compound 95], the IC50 (human neutrophils, 25 nM GROα) is > 5 µM. Still for that read-out and setting: next, `O=C(Nc1ccc(F)cc1)c1ccc(SCc2cc3nsnc3cc2Cl)nc1` [Compound 63]: > 10 µM; `O=C(Nc1ccc(F)cn1)c1ccc(SCc2ccccc2B(O)O)nc1` [Compound 164]: 0.294 ± 0.119 µM; `CC1(C)OB(c2ccc(F)cc2CSc2ccc(C(=O)Nc3ccc(F)cc3)cn2)OC1(C)C` [Compound 18]: 1.23 ± 0.12 µM.

In the case of `CC1(C)OB(c2ccc(CSc3ccc(C(=O)Nc4ccc(F)cc4)cn3)cc2)OC1(C)C` [Compound 20], the IC50 (human neutrophils, 25 nM GROα) stood at 0.112 ± 0.067 µM. As for `CC(C)(C)c1cc(C(=O)CSc2ccc(C(=O)Nc3ccc(F)cc3)cn2)cc(C(C)(C)C)c1O` [Compound 96], the IC50 (human neutrophils, 25 nM GROα) is > 10 µM. Still for that read-out and setting: next, `Cn1c(CSc2ccc(C(=O)Nc3ccc(F)cc3)cn2)nc2ccccc21` [Compound 67]: > 10 µM; `O=C(Nc1ccc(-c2nn[nH]n2)cc1)c1ccc(SCc2ccccc2B(O)O)nc1` [Compound 161]: > 10 µM; `O=C(Nc1ccc(F)cc1)c1ccc(SCC(=O)c2csc3ccccc23)nc1` [Compound 126]: > 5 µM. Still for that read-out and setting: next, `O=C(Nc1ccc(F)cc1)c1ccc(SCC(=O)c2ccc(-c3ccccc3)s2)nc1` [Compound 123]: > 10 µM; `O=C(Nc1ccc(F)cc1)c1ccc(SCc2cc([N+](=O)[O-])ccc2O)nc1` [Compound 40]: > 5 µM; `O=C(Nc1ccc(F)cc1)c1ccc(SCc2ccc3nonc3c2)nc1` [Compound 65]: 0.216 ± 0.066 µM. Still for that read-out and setting: the value for `O=C(Nc1ccc(F)cc1)c1ccc(SCCCN2C(=O)c3ccc([N+](=O)[O-])cc3C2=O)nc1` [Compound 58] was > 5 µM; that for `O=C(Nc1ccc(F)cc1)c1ccc(SCC2CCCCO2)nc1` (stereo not drawn) [Compound 78] was > 5 µM; that for `CC1(C)OB(c2ccccc2CSc2ccc(C(=O)Nc3ccc(F)cc3)cn2)OC1(C)C` [Compound 16] was 0.275 ± 0.103 µM. Consider `O=C(Nc1ccc(F)cc1)c1ccc(SCC(=O)c2cc3ccccc3s2)nc1` [Compound 128], for which the IC50 (human neutrophils, 25 nM GROα) worked out at 1.81 ± 0.52 µM.

With `Cc1nc(-c2cccc(CSc3ccc(C(=O)Nc4ccc(F)cc4)cn3)c2)no1` [Compound 35], for the setting “human neutrophils, 25 nM GROα”, the IC50 was > 10 µM. With `CCCCCc1ccc(C(=O)CSc2ccc(C(=O)Nc3ccc(F)cc3)cn2)cc1` [Compound 97], the half-inhibitory concentration (IC50) (human neutrophils, 25 nM GROα) is > 10 µM.

As to `O=C(CSc1ccc(C(=O)Nc2ccc(F)cc2)cn1)c1ccc(-c2cccs2)cc1` [Compound 98], the IC50 (human neutrophils, 25 nM GROα) is > 10 µM.

As for `Cc1nc(-c2ccccc2)sc1CSc1ccc(C(=O)Nc2ccc(F)cc2)cn1` [Compound 70], where the note is “human neutrophils, 25 nM GROα”, the IC50 was determined as 1.21 ± 0.39 µM. On the same count and under the same terms, next, `Cc1nc(-c2ccccc2)sc1C(=O)CSc1ccc(C(=O)Nc2ccc(F)cc2)cn1` [Compound 146]: > 10 µM; `Cc1c(C(=O)CSc2ccc(C(=O)Nc3ccc(F)cc3)cn2)sc2ccc(Cl)cc12` [Compound 132]: 0.78 ± 0.51 µM. The same measure, in the same setting: next, `O=C(Nc1ccc(F)cc1)c1ccc(SCc2ccc(-n3cccc3)cc2)nc1` [Compound 31]: > 10 µM. For `O=C(Nc1ccc(F)cc1)c1ccc(SCC(=O)c2cccc3c2OCCO3)nc1` [Compound 141], where the note is “human neutrophils, 25 nM GROα”, the IC50 is > 5 µM. In the case of `CCOP(=O)(CSc1ccc(C(=O)Nc2ccc(F)cc2)cn1)OCC` [Compound 82], under “human neutrophils, 25 nM GROα”, the IC50 is > 10 µM.

Consider `Cc1nc(-c2cnccn2)sc1C(=O)CSc1ccc(C(=O)Nc2ccc(F)cc2)cn1` [Compound 149], for which the IC50 (human neutrophils, 25 nM GROα) is > 10 µM. On the same count and under the same terms, next, `O=C(Nc1ccc(F)cc1)c1ccc(SCC2COc3ccccc3O2)nc1` (stereo not drawn) [Compound 51]: 0.76 µM; `O=C(Nc1ccc(F)cc1)c1ccc(SCc2ccc3nsnc3c2)nc1` [Compound 62]: > 10 µM. On to `COC(=O)c1ccc(CSc2ccc(C(=O)Nc3ccc(F)cc3)cn2)cc1` [Compound 23], for which the IC50 (human neutrophils, 25 nM GROα) was > 10 µM. On the same count and under the same terms, the value for `O=C(Nc1ccc(F)cc1)c1ccc(SCc2cccc(B(O)O)c2)nc1` [Compound 7] was 1.97 ± 0.75 µM. Same read-out and setting: next, `O=C(CSc1ccc(C(=O)Nc2ccc(F)cc2)cn1)c1ccc2sccc2c1` [Compound 125]: > 10 µM; `O=C(Nc1ccncc1)c1ccc(SCc2ccccc2B(O)O)nc1` [Compound 162]: 0.52 ± 0.263 µM; `O=C(Nc1ccc(F)cc1)c1ccc(SCc2cccc3nsnc23)nc1` [Compound 64]: > 5 µM. On the same count and under the same terms, next, `O=C(CSc1ccc(C(=O)Nc2ccc(F)cc2)cn1)c1ccc(-c2nn[nH]n2)cc1` [Compound 104]: 1.15 ± 0.47 µM; `O=C(Nc1ccc(F)cc1)c1ccc(SCC2CCOCC2)nc1` [Compound 77]: > 10 µM.

For the compound `O=C(Nc1ccc(F)cc1)c1ccc(SCCCCB(O)O)nc1` [Compound 10], the IC50 (human neutrophils, 25 nM GROα) came to 0.689 ± 0.23 µM.

With `O=C(c1ccc(SCc2ccccc2B(O)O)nc1)N(CC1CCCCN1)c1ccc(F)cc1` (stereo not drawn) [Compound 156], the IC50 (human neutrophils, 25 nM GROα) is > 5 µM. The same measure, in the same setting: the value for `O=C(Nc1ccc(F)cc1)c1ccc(SCCOc2ccccc2)nc1` [Compound 72] was > 10 µM; that for `Cc1ccc(C(=O)CSc2ccc(C(=O)Nc3ccc(F)cc3)cn2)c(C)c1` [Compound 87] was > 5 µM; that for `O=C(Nc1ccc(F)cc1)c1ccc(SCC(=O)c2ccccc2C(F)(F)F)nc1` [Compound 108] was > 10 µM. `O=C(Nc1ccc(F)cc1)c1ccc(SCC(=O)c2ccc(-c3ccccn3)s2)nc1` [Compound 124]: the IC50 (human neutrophils, 25 nM GROα) was > 10 µM. On the same count and under the same terms, the value for `O=C(Nc1ccc(F)cc1)c1ccc(SCC2CCCO2)nc1` (stereo not drawn) [Compound 76] was 0.542 ± 0.104 µM; that for `CN(C(=O)c1ccc(SCc2ccccc2B(O)O)nc1)c1ccc(F)cc1` [Compound 154] was > 5 µM; that for `O=C(Nc1ccc(F)cc1)c1ccc(SCc2nn[nH]n2)nc1` [Compound 49] was 3.9 ± 1.2 µM. Same read-out and setting: the value for `O=C(CSc1ccc(C(=O)Nc2ccc(F)cc2)cn1)c1ccc2c(c1)OCCO2` [Compound 140] was 0.194 ± 0.052 µM; that for `O=C(CSc1ccc(C(=O)Nc2ccc(F)cc2)cn1)c1ccc2c(c1)OCO2` [Compound 139] was > 5 µM; that for `O=C(c1ccc(SCc2ccccc2B(O)O)nc1)N(Cc1ccncc1)c1ccc(F)cc1` [Compound 157] was 0.89 ± 0.67 µM. With `Cc1ccc2sc(C(=O)CSc3ccc(C(=O)Nc4ccc(F)cc4)cn3)c(C)c2c1` [Compound 130], the IC50 (human neutrophils, 25 nM GROα) is > 10 µM. Still for that read-out and setting: the value for `Nc1nc(N)c2nc(CSc3ccc(C(=O)Nc4ccc(F)cc4)cn3)cnc2n1` [Compound 57] was > 10 µM. Same read-out and setting: the value for `Cc1cccc(CSc2ccc(C(=O)Nc3ccc(F)cc3)cn2)c1F` [Compound 28] was > 10 µM; that for `O=C(CSc1ccc(C(=O)Nc2ccc(F)cc2)cn1)c1ccsc1` [Compound 121] was > 10 µM.

As for `O=C(CSc1ccc(C(=O)Nc2ccc(F)cc2)cn1)c1ccc(Cl)c([N+](=O)[O-])c1` [Compound 94], where the note is “human neutrophils, 25 nM GROα”, the IC50 came to 0.016 µM. Consider `Cc1noc(-c2ccccc2)c1CSc1ccc(C(=O)Nc2ccc(F)cc2)cn1` [Compound 46], for which the IC50 (human neutrophils, 25 nM GROα) was > 10 µM. As to `O=C(CSc1ccc(C(=O)Nc2ccc(F)cc2)cn1)c1ccc([N+](=O)[O-])cc1` [Compound 101], the IC50 is > 10 µM. Regarding `O=C(Nc1ccc(F)cc1)c1ccc(SCC(=O)c2cc3ccc(Br)cc3o2)nc1` [Compound 119], the IC50 (human neutrophils, 25 nM GROα) turned out to be 0.981 ± 0.29 µM. On the same count and under the same terms, next, `O=C(Nc1ccc(F)cc1)c1ccc(SCc2ccccc2)nc1` [Compound 12]: 0.393 ± 0.16 µM; `O=C(CSc1ccc(C(=O)Nc2ccc(F)cc2)cn1)c1cc(C(F)(F)F)cc(C(F)(F)F)c1` [Compound 110]: > 10 µM.

These data come from patent US8981106B2, “Pyrimidinecarboxamides as CXCR2 modulators” (Syntrix Biosystems, Inc., priority 2009, dated 2015).
